Assay results as given in PubChem BioAssay (NCI).
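1) Cells in 96-well plates. 2) Compound, 48 h, 5 concentrations. 3) Linear interpolation between surrounding doses. 4) Unreached endpoint = highest concentration. TGI: total growth inhibition.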

Key:
Assay in all cases: NCI-60 cell line screen, 48 h
786-0 renal = system: 786-0 renal
A498 renal = system: A498 renal
A549 NSCLC = system: A549 NSCLC
ACHN renal = system: ACHN renal
BT-549 breast = system: BT-549 breast
CAKI-1 renal = system: CAKI-1 renal
CCRF-CEM leukemia = system: CCRF-CEM leukemia
COLO 205 colon = system: COLO 205 colon
EKVX NSCLC = system: EKVX NSCLC
HCC-2998 colon = system: HCC-2998 colon
HCT-116 colon = system: HCT-116 colon
HCT-15 colon = system: HCT-15 colon
HOP-62 NSCLC = system: HOP-62 NSCLC
HOP-92 NSCLC = system: HOP-92 NSCLC
HS 578T breast = system: HS 578T breast
HT29 colon = system: HT29 colon
IGROV1 ovarian = system: IGROV1 ovarian
K-562 leukemia = system: K-562 leukemia
KM12 colon = system: KM12 colon
LOX IMVI melanoma = system: LOX IMVI melanoma
M14 melanoma = system: M14 melanoma
MALME-3M melanoma = system: MALME-3M melanoma
MCF7 breast = system: MCF7 breast
MDA-MB-231 breast = system: MDA-MB-231 breast
MDA-MB-435 = system: MDA-MB-435
MDA-N = system: MDA-N
MOLT-4 leukemia = system: MOLT-4 leukemia
NCI-H226 lung = system: NCI-H226 lung
NCI-H460 lung = system: NCI-H460 lung
NCI-H522 lung = system: NCI-H522 lung
NCI/ADR-RES ovarian = system: NCI/ADR-RES ovarian
OVCAR-4 ovarian = system: OVCAR-4 ovarian
OVCAR-5 ovarian = system: OVCAR-5 ovarian
OVCAR-8 ovarian = system: OVCAR-8 ovarian
PC-3 prostate = system: PC-3 prostate
RPMI-8226 leukemia = system: RPMI-8226 leukemia
RXF 393 renal = system: RXF 393 renal
SF-268 CNS = system: SF-268 CNS
SF-295 CNS = system: SF-295 CNS
SF-539 CNS = system: SF-539 CNS
SK-MEL-2 melanoma = system: SK-MEL-2 melanoma
SK-MEL-28 melanoma = system: SK-MEL-28 melanoma
SK-MEL-5 melanoma = system: SK-MEL-5 melanoma
SK-OV-3 ovarian = system: SK-OV-3 ovarian
SN12C renal = system: SN12C renal
SNB-19 CNS = system: SNB-19 CNS
SNB-75 CNS = system: SNB-75 CNS
SW-620 colon = system: SW-620 colon
TK-10 renal = system: TK-10 renal
U251 CNS = system: U251 CNS
UACC-257 melanoma = system: UACC-257 melanoma
UACC-62 melanoma = system: UACC-62 melanoma
DU-145 prostate = system: DU-145 prostate
HL-60(TB) leukemia = system: HL-60(TB) leukemia
NCI-H23 lung = system: NCI-H23 lung
OVCAR-3 ovarian = system: OVCAR-3 ovarian
T-47D breast = system: T-47D breast
UO-31 renal = system: UO-31 renal

COc1ccc(-c2c(C#N)c(-c3ccc(C)cc3)n(NS(=O)(=O)c3ccc(C)cc3)c(=O)c2C#N)cc1
TGI (786-0 renal): > 100 µM
TGI (A498 renal): > 100 µM
TGI (A549 NSCLC): > 100 µM
TGI (ACHN renal): > 100 µM
TGI (BT-549 breast): > 100 µM
TGI (CAKI-1 renal): > 100 µM
TGI (CCRF-CEM leukemia): 81.6 µM
TGI (COLO 205 colon): > 100 µM
TGI (EKVX NSCLC): > 100 µM
TGI (HCC-2998 colon): > 100 µM
TGI (HCT-116 colon): > 100 µM
TGI (HCT-15 colon): > 100 µM
TGI (HOP-62 NSCLC): > 100 µM
TGI (HOP-92 NSCLC): > 100 µM
TGI (HS 578T breast): 75.1 µM
TGI (HT29 colon): > 100 µM
TGI (IGROV1 ovarian): > 100 µM
TGI (K-562 leukemia): > 100 µM
TGI (KM12 colon): > 100 µM
TGI (LOX IMVI melanoma): > 100 µM
TGI (M14 melanoma): > 100 µM
TGI (MALME-3M melanoma): > 100 µM
TGI (MCF7 breast): > 100 µM
TGI (MDA-MB-231 breast): > 100 µM
TGI (MDA-MB-435): > 100 µM
TGI (MDA-N): > 100 µM
TGI (MOLT-4 leukemia): 57.4 µM
TGI (NCI-H226 lung): > 100 µM
TGI (NCI-H460 lung): > 100 µM
TGI (NCI-H522 lung): > 100 µM
TGI (NCI/ADR-RES ovarian): > 100 µM
TGI (OVCAR-4 ovarian): > 100 µM
TGI (OVCAR-5 ovarian): > 100 µM
TGI (OVCAR-8 ovarian): > 100 µM
TGI (PC-3 prostate): > 100 µM
TGI (RPMI-8226 leukemia): 46.3 µM
TGI (RXF 393 renal): > 100 µM
TGI (SF-268 CNS): > 100 µM
TGI (SF-295 CNS): > 100 µM
TGI (SF-539 CNS): > 100 µM
TGI (SK-MEL-2 melanoma): > 100 µM
TGI (SK-MEL-28 melanoma): > 100 µM
TGI (SK-MEL-5 melanoma): 58.3 µM
TGI (SK-OV-3 ovarian): > 100 µM
TGI (SN12C renal): > 100 µM
TGI (SNB-19 CNS): > 100 µM
TGI (SNB-75 CNS): > 100 µM
TGI (SW-620 colon): > 100 µM
TGI (TK-10 renal): > 100 µM
TGI (U251 CNS): > 100 µM
TGI (UACC-257 melanoma): > 100 µM
TGI (UACC-62 melanoma): > 100 µM

Cc1cc(Cc2cc(C)c(N)cc2N)c(N)cc1N
TGI (786-0 renal): > 100 µM
TGI (A498 renal): > 100 µM
TGI (A549 NSCLC): > 100 µM
TGI (ACHN renal): > 100 µM
TGI (BT-549 breast): > 100 µM
TGI (CAKI-1 renal): > 100 µM
TGI (COLO 205 colon): > 100 µM
TGI (DU-145 prostate): > 100 µM
TGI (EKVX NSCLC): > 100 µM
TGI (HCT-116 colon): > 100 µM
TGI (HCT-15 colon): > 100 µM
TGI (HL-60(TB) leukemia): > 100 µM
TGI (HOP-62 NSCLC): > 100 µM
TGI (HT29 colon): > 100 µM
TGI (IGROV1 ovarian): > 100 µM
TGI (K-562 leukemia): > 100 µM
TGI (KM12 colon): > 100 µM
TGI (LOX IMVI melanoma): > 100 µM
TGI (M14 melanoma): > 100 µM
TGI (MCF7 breast): > 100 µM
TGI (MDA-MB-231 breast): > 100 µM
TGI (MDA-MB-435): > 100 µM
TGI (MDA-N): > 100 µM
TGI (MOLT-4 leukemia): > 100 µM
TGI (NCI-H226 lung): > 100 µM
TGI (NCI-H23 lung): > 100 µM
TGI (NCI-H460 lung): > 100 µM
TGI (NCI-H522 lung): > 100 µM
TGI (NCI/ADR-RES ovarian): > 100 µM
TGI (OVCAR-3 ovarian): > 100 µM
TGI (OVCAR-4 ovarian): > 100 µM
TGI (OVCAR-5 ovarian): > 100 µM
TGI (OVCAR-8 ovarian): > 100 µM
TGI (PC-3 prostate): > 100 µM
TGI (RPMI-8226 leukemia): > 100 µM
TGI (RXF 393 renal): > 100 µM
TGI (SF-268 CNS): > 100 µM
TGI (SF-295 CNS): > 100 µM
TGI (SF-539 CNS): > 100 µM
TGI (SK-MEL-2 melanoma): > 100 µM
TGI (SK-MEL-28 melanoma): > 100 µM
TGI (SK-MEL-5 melanoma): > 100 µM
TGI (SK-OV-3 ovarian): > 100 µM
TGI (SN12C renal): > 100 µM
TGI (SNB-19 CNS): > 100 µM
TGI (SNB-75 CNS): > 100 µM
TGI (SW-620 colon): > 100 µM
TGI (T-47D breast): > 100 µM
TGI (TK-10 renal): > 100 µM
TGI (U251 CNS): > 100 µM
TGI (UACC-257 melanoma): > 100 µM
TGI (UACC-62 melanoma): > 100 µM
TGI (UO-31 renal): > 100 µM
